Results published in PMC5793070, “Bacillibactin and Bacillomycin Analogues with Cytotoxicities against Human Cancer Cell Lines from Marine Bacillus sp. PKU-MA00093 and PKU-MA00092” (Marine Drugs, 2018).
Like-named read-outs stand apart in the source and are kept apart here. Numbered stars: 1 amine (or outer) side, 2 acyl side, 3 side chain; on linkers, the order of the positions; unused ones are H or OH. Square brackets hold non-standard residues; d marks the D form. Peptide text beside a SMILES is read from it. Hexadecanoyl(3R-amino) = CCCCCCCCCCCCC[C@H](CC(=O)[*:2])N[*:1]; X1 = CCC(C)CCCCCCCCCC[C@H](CC(=O)[*:2])N[*:1]; X3 = CC(C)CCCCCCCCCC[C@H](CC(=O)[*:2])N[*:1]

Key:
[1] = test system: breast cancer cell line MCF7; assay: MTT cytotoxicity assay against MCF7
Description: (§1) Two human cancer cell lines, liver cancer cell line HepG2, and breast cancer cell line MCF7, were used in the assays.
(§2) HepG2 and MCF7 cell lines were purchased from Peking Union Medical College, Cell Bank (Beijing, China). In this study, the cells were grown in Dulbecco’s modified Eagle’s medium (Hyclone, Waltham, MA, USA), supplemented with 10% fetal bovine serum (FBS, PAN Biotech, Aidenbach, Germany), penicillin (100 U/mL), and streptomycin (100 µg/mL) in a humidified incubator containing 95% air and 5% CO2 at 37 °C. Cell viability was detected by MTT colorimetric assay. Briefly, the cells were treated with different concentrations of compounds (in DMSO stock) for 48 h, with taxol as the positive control. Then, culture supernatants were replaced with medium containing 0.5 mg/mL MTT for 4 h. The supernatant was removed and 100 μL of dimethyl sulfoxide was added. Absorbance was detected at 550 nm and cell viability was expressed as the mean percentage of the absorbance in treated vs. control cells. Different concentrations of compounds ranging from 0.1 to 40 µM were tested and each of the concentration was tested in parallel triplicate. Six concentration points in the slope region were used in the calculation of IC50 values. The IC50 values were calculated from the concentration–response curves that were generated by nonlinear regression with Graph Pad Prism 5 software (Graph Pad Software, Inc., San Diego, CA, USA).

[2] = test system: liver cancer cell line HepG2; assay: MTT cytotoxicity assay against HepG2
Description: as §1, §2

[3] = test system: human cancer cell line HCT-15; settings: lipopeptide proposed as bacillomycin D only based on LC-MS analysis; result in words; cited from earlier work
Description: (§3) Compounds 1–10 were tested for their antitumor activities.

[4] = test system: human cancer cell line A549; settings: lipopeptide proposed as bacillomycin D only based on LC-MS analysis; result in words; cited from earlier work
Description: as §3

[5] = test system: human cancer cell line A498; settings: lipopeptide proposed as bacillomycin D only based on LC-MS analysis; result in words; cited from earlier work
Description: as §3

With `CC(C)CCCCCCCCCC[C@@H]1CC(=O)N[C@@H](CC(N)=O)C(=O)N[C@H](Cc2ccc(O)cc2)C(=O)N[C@H](CC(N)=O)C(=O)N2CCC[C@H]2C(=O)N[C@@H](CCC(=O)O)C(=O)N[C@H](CO)C(=O)N[C@@H]([C@@H](C)O)C(=O)N1` [Compound 8, iso-C16 bacillomycin D] (cyclo(E[dS]T[X3]N[dY][dN]P)) the IC50 ([1]; human, 48 h) was 2.9 ± 0.1 µM and the IC50 ([2]; human, 48 h) was 5.1 ± 0.2 µM.
Work on `CCCCCCCCCCCCC[C@@H]1CC(=O)N[C@@H](CC(N)=O)C(=O)N[C@H](Cc2ccc(O)cc2)C(=O)N[C@H](CC(N)=O)C(=O)N2CCC[C@H]2C(=O)N[C@@H](CCC(=O)O)C(=O)N[C@H](CO)C(=O)N[C@@H]([C@@H](C)O)C(=O)N1` [Compound 9, C16 bacillomycin D] (cyclo(E[dS]T[Hexadecanoyl(3R-amino)]N[dY][dN]P)) yielded an IC50 ([1]; human, 48 h) of 3.3 ± 0.1 µM and an IC50 ([2]; human, 48 h) of 4.9 ± 0.2 µM.
Work on `CCC(C)CCCCCCCCCC[C@@H]1CC(=O)N[C@@H](CC(N)=O)C(=O)N[C@H](Cc2ccc(O)cc2)C(=O)N[C@H](CC(N)=O)C(=O)N2CCC[C@H]2C(=O)N[C@@H](CCC(=O)O)C(=O)N[C@H](CO)C(=O)N[C@@H]([C@@H](C)O)C(=O)N1` (stereo partly shown) [Compound 10, anteiso-C17 bacillomycin D] (cyclo(E[dS]T[X1]N[dY][dN]P)) yielded an IC50 ([1]; human, 48 h) of 7.2 ± 0.2 µM and an IC50 ([2]; human, 48 h) of over 10 µM.
In the case of `CC(=O)O[C@H]1C(=O)[C@@]2(C)[C@H]([C@H](OC(=O)c3ccccc3)[C@]3(O)C[C@H](OC(=O)[C@H](O)[C@@H](NC(=O)c4ccccc4)c4ccccc4)C(C)=C1C3(C)C)[C@]1(OC(C)=O)CO[C@@H]1C[C@@H]2O` [Taxol, reference compound], the IC50 ([1]; Homo sapiens, MCF7, 48 h, read-out: Cytotoxicity (IC50 Values in µM), MCF7) is reported as 0.043 ± 0.003 µM and the IC50 ([2]; Homo sapiens, HepG2, 48 h, read-out: Cytotoxicity (IC50 Values in µM), HepG2) is reported as 0.075 ± 0.004 µM.
In the case of bacillomycin D [Compound 5], the “inhibition rate, MCF7” value ([1]; MCF7, at the concentration of 10 µM, MTT, 48 h, described as no cytotoxicities) is given as “below 20%”, the “inhibition rate, HepG2” value ([2]; HepG2, at the concentration of 10 µM, MTT, 48 h, described as no cytotoxicities) is given as “below 20%” and the “inhibitory activities against HCT-15” value [3] is given as “inhibitory activities”. The “inhibitory activities against A549” value [4] was “inhibitory activities” and the “inhibitory activities against A498” value [5] was “inhibitory activities”.
